Marks after values point to notes of the source that are not given here.
Key:
Fisher F344 rats [1] = assay: Hypocholesterolemic effects of five small peptides in Fisher F344 rats, hypercholesterolemic rat model (Example 9); format: in vivo; details: 100 mg/kg BW oral, 7 days, mean ± SD, n = 9-10; for HDL cholesterol (plasma): control 0.14 ± 0.08; for Total cholesterol (plasma): control 10.1 ± 2.2; for non HDL cholesterol (plasma): total minus HDL cholesterol, control 10.0 ± 2.2
From the text: In short eighty male Fisher rats (F344) from Charles River (Sulzfeld, Germany), weighing 65-96 g were housed individually with free access to water and feed, with an alternating 12-hour light-dark cycle. The animals were fed a rodent atherogenic diet high in cholesterol and fat for the 2 weeks preceding the treatment. The macro-nutrient composition of the diet was as follows (g/100 g anhydrous mix): protein 20.8; fiber 4.2; fat 15; carbohydrate 48. The diet also contained 1.25 wt % cholesterol, 0.5 wt % sodium cholate and a standard vitamin and mineral mix, prepared according to rat nutritional requirements. The main fats consisted of cacoa butter (7.5 wt %) and soja oil (4.35 wt %). After 2 weeks of adaptation to the diet the rats were randomized according to body weight into […] of 10 animals. The […] were treated orally every morning for 7 days with either water (control group) or one of the following peptides: RPRPS, RGRPS, HPHPH, RPRP, KPKPS, at a dose of 100 mg/kg body weight (BW) while continuing the aetherogenic diet. There was no difference in feed consumption over the whole experiment. The day before the last administration, all animals were dosed orally in the evening and deprived of food overnight (14 hours) but allowed free access to water. At day 7 the fasted rats were treated again orally in the morning and after two hours the animals were sacrificed by withdrawing blood from the vena Cava under Isoflurane anesthesia. Blood was collected into tubes containing EDTA as an anticoagulant. Plasma was prepared from the blood by immediate centrifugation at 1600 g for 10 minutes at 4° C. Assays of plasma cholesterol and HDL-cholesterol (precipitation method) were determined enzymatically on a Hitachi 912 automatic analyzer (Roche Diagnostica, Switzerland). Non-HDL cholesterol was calculated by difference between total cholesterol and HDL cholesterol. One animal in the control group was excluded from the analysis due to hemolytic plasma which interfered with the measurements. All data are expressed as means±standard deviation (SD) for animals in each diet group, with n being the number of rats. Statistical significance of the mean differences between dietary groups was tested by one-way analysis of variance (ANOVA). If significant differences were found, the Dunnett's test for multiple comparison was used to compare each group to the control group. P values less than 0.05 were considered significant (Table 3).

[2] = In vivo efficacy of peptide RPRPRPSF with and without beta-sitosterol (protocol of Nagaoka et al.); details: in combination with beta-sitosterol
From the text: Peptide RPRPRPSF is chemically synthesized and beta-sitosterol is obtained from Sigma. Both compounds, apart and in combination, are subjected to a testing protocol which is essentially similar to the in vivo testing protocol described by Nagaoka et al., BBRC 281 (2001) 11-17.

[3] = Solubility of cholesterol in mixed micelles (intramicellar cholesterol after 24 h at 37° C., centrifugation and filtration); details: 10 mg/ml test substance, 0.5 mM cholesterol, 6.6 mM taurocholate, 2.4 mM lecithin, pH 7.4, control 0.494
Experimental: The mixed micelles were prepared according to the method described by Nagaoka et al. (Biochemical and Biophysical Research Communications 281: 11-17 (2001)) by sonication of a 15 mM phosphate buffer saline (PBS) solution containing 6.6 mM taurocholate, 2.4 mM lecithin, 0.5 mM cholesterol and either 10 mg/ml of octapeptide (RPRPRPSF, MW1012) or 10 mg/ml soy protein (SUPRO 760, Solea Belgium) at pH 7.4. The lipids, phospholipids and cholesterol were dissolved in methanol and dried before adding the PBS buffer and the peptides or the soy protein at a final concentration of 10 mg/ml. The resulting micellar solution was kept at 37° C. for 24 hours and centrifuged at 1000×g for 10 min. In order to separate any precipitated cholesterol from the intramicellar cholesterol the solution was then filtered through a 0.22 μm MILLEX-GP filter (Millipore, Bedford, Mass., USA). The intramicellar concentration of cholesterol was then determined enzymatically using a cholesterol kit and a Hitachi 912 automatic analyzer from Roche Diagnostica, Switzerland.

Fisher F344 rats [4] = assay: Hypocholesterolemic effects of peptides in Fisher F344 rats on atherogenic diet (Example 8); format: in vivo, rat; details: 7 days; for HDL cholesterol (plasma) / Total cholesterol (plasma) / non HDL cholesterol (plasma): mean ± SD, n = 10; for HDL cholesterol (plasma): control 0.22 ± 0.12; for Total cholesterol (plasma): control 12.8 ± 3.1; for non HDL cholesterol (plasma): total minus HDL cholesterol, control 12.5 ± 3.1
From the text: Forty male Fisher rats (F344) from Charles River (Sulzfeld, Germany), weighing 70-85 g were housed individually with free access to water and feed, with an alternating 12-hour light-dark cycle. The animals were fed a rodent atherogenic diet high in cholesterol and fat for the 2 weeks preceding the treatment. The macro-nutrient composition of the diet was as follows (g/100 g anhydrous mix): protein 20.8; fiber 4.2; fat 15; carbohydrate 48. The diet also contained 1.25 wt % cholesterol, 0.5 wt % sodium cholate and a standard vitamin and mineral mix, prepared according to rat nutritional requirements. The main fats consisted of cacoa butter (7.5 wt %) and soja oil (4.35 wt %). After 2 weeks of adaptation to the diet the rats were randomized according to body weight into four experimental groups of 10 animals. The four groups were treated orally every morning for 7 days with either water (control group) or octapeptide (RPRPRPSF) at two doses of 200 and 800 mg/kg body weight (BW) respectively or soy protein (SUPRO 760) at 800 mg/kg BW while continuing the aetherogenic diet. There was no difference in feed consumption over the whole experiment. The day before the last administration, all animals were dosed orally in the evening and deprived of food overnight (14 hours) but allowed free access to water. At day 7 the fasted rats were treated again orally in the morning and after two hours the animals were sacrificed by withdrawing blood from the vena Cava under Isoflurane anesthesia. Blood was collected into tubes containing EDTA as an anticoagulant. Plasma was prepared from the blood by immediate centrifugation at 1600 g for 10 minutes at 4° C. Assays of plasma cholesterol and HDL-cholesterol (precipitation method) were determined enzymatically on a Hitachi 912 automatic analyzer (Roche Diagnostica, Switzerland). Non-HDL cholesterol was calculated by difference between total cholesterol and HDL cholesterol. All data are expressed as means±standard deviation (SD) for animals in each diet group, with n being the number of rats. Statistical significance of the mean differences between dietary groups was tested by one-way analysis of variance (ANOVA). If significant differences were found, the Dunnett's test for multiple comparison was used to compare each group to the control group. P values less than 0.05 were considered significant (Table 2).

[5] = 200 and 800 mg/Kg BW oral, p < 0.05

Row | Substance | HDL cholesterol (plasma) (Fisher F344 rats [1]) | Total cholesterol (plasma) (Fisher F344 rats [1]) | non HDL cholesterol (plasma) (Fisher F344 rats [1]) | other results
1 | HPHPH | 0.29 ± 0.13^b mmol/L | 3.4 ± 1.2^b mmol/L | 3.1 ± 1.3^b mmol/L | 
2 | KPKPS | 0.29 ± 0.11^b mmol/L | 3.0 ± 1.0^b mmol/L | 2.7 ± 1.0^b mmol/L | 
3 | RGRPS | 0.37 ± 0.14^b mmol/L | 3.2 ± 0.4^b mmol/L | 2.9 ± 0.4^b mmol/L | 
4 | RPRP | 0.33 ± 0.11^b mmol/L | 2.9 ± 0.4^b mmol/L | 2.6 ± 0.4^b mmol/L | 
5 | RPRPRPSF [synthetic octapeptide R-P-R-P-R-P-S-F, MW1012] |  |  |  | Effect on cholesterol in vivo [2]: further enhanced; Cholesterol content of the micellar solution ([3]; listed as Octapeptide): 0.153 mmol/L; Cholesterol content of the micellar solution ([3]; listed as octapeptide (RPRPRPSF)): drastically decreased; HDL cholesterol (plasma) (Fisher F344 rats [4]; 200 mg/Kg BW oral): 0.54 ± 0.20^b mmol/L; Total cholesterol (plasma) (Fisher F344 rats [4]; 200 mg/Kg BW oral): 4.1 ± 1.2^b mmol/L; non HDL cholesterol (plasma) (Fisher F344 rats [4]; 200 mg/Kg BW oral): 3.6 ± 1.2^b mmol/L; HDL cholesterol (plasma) (Fisher F344 rats [4]; 800 mg/Kg BW oral): 0.51 ± 0.17^b mmol/L; Total cholesterol (plasma) (Fisher F344 rats [4]; 800 mg/Kg BW oral): 3.4 ± 0.7^b mmol/L; non HDL cholesterol (plasma) (Fisher F344 rats [4]; 800 mg/Kg BW oral): 2.9 ± 0.7^b mmol/L; Non-HDL cholesterol (VLDL-cholesterol+LDL-cholesterol) levels as compared to the control group (Fisher F344 rats [4]; [5]): significantly lowered; Plasma total cholesterol levels as compared to the control group (Fisher F344 rats [4]; [5]): significantly lowered; Ratio of non-HDL cholesterol to HDL-cholesterol (Fisher F344 rats [4]; oral): positively affected; Plasma HDL-cholesterol compared to the control group (Fisher F344 rats [4]; oral, p < 0.05): significantly increased
6 | RPRPS | 0.29 ± 0.06^b mmol/L | 3.6 ± 1.1^b mmol/L | 3.3 ± 1.2^b mmol/L | 
